Measurements from patent US6552080B1, “Fungicidal compounds having a fluorovinyl-or fluoropropenyl-oxyphenyloxime moiety and process for the preparation thereof” (Korea Research Institute of Chemical Technology, priority 1999, dated 2003).
Where two headings read alike, the source gives them in different places.

Columns and labels:
[1] = system: Pyricularia oryzae Carvara KA301; type: in vivo; settings: for RCV (Fungicidal Activities, C.V.): Rice Blast
[2] = system: Botrytis cinerae; assay: Fungicidal activity against Cucumber Gray Mold Rot (CGM) disease; type: in vivo; settings: for CGM (Fungicidal Activities, C.V.): Cucumber Gray Mold Rot, concentration 50 ppm; for Fungicidal Activities CGM (C.V.): 50 ppm
Method: Botrytis cinerae, which was isolated from cucumber infected thereby, was inoculated on a PDA agar medium and cultured under a 12L/12D cycle at 25° C. for 15 days to form spore. The spores were scraped, filtered through a gauze and then suspended in potato dextrose liquid medium at a concentration of 1×10^6 spore/ml. The spore suspension was sprayed on a cucumber plant having one leaf. The cucumber plant was held in a humidified room at 20° C. for 3 days. L.A. on a leaf was measured to calculate an C.V.

[3] = system: Phytophthora infestans; type: in vivo; settings: for TLB (Fungicidal Activities, C.V.): Tomato Late Blight
[4] = system: Puccinia recondita; assay: Fungicidal activity against Wheat Leaf Rust (WLR) disease; type: in vivo; settings: for WLR (Fungicidal Activities, C.V.): Wheat Leaf Rust
[5] = system: Erysiphae graminis; assay: Fungicidal activity against Barley Powdery Mildew (BPM) disease; type: in vivo; settings: for BPM (Fungicidal Activities, C.V.): Barley Powdery Mildew
[6] = system: Rhizoctonia solani AG-1; assay: Fungicidal activity against Rice Sheath Blight (RSB) disease; settings: for RSB (Fungicidal Activities, C.V.): Rice Sheath Blight
Method: To examine fungicidal activity of the compounds of the present invention, each of the compounds listed in Table 3 and 4 was dissolved in 10% acetone to a concentration of 250 ppm, and Tween-20 was added thereto to a concentration of 250 or 500 ppm. 50 ml of the resulting solution was sprayed on leaves of a host plant. The plant was kept at room temperature for 24 hours to let the solvent evaporate, and then, a pathogenic fungus was inoculated thereonto. The plant was held in a humidity chamber for 24 hours, transferred to an plant growth room kept at 20 to 27° C. and a relative humidity of 60 to 80% and kept to induce disease. […] This procedure was repeated twice for each test. 10% Acetone solution containing 250 ppm of Tween-20 was used as a control.
The fungicidal activity of the compound of the present invention is repressed by a control value (C.V.) calculated as; [formula]
Rhizoctonia solani AG-1 was cultured on a PDA medium (potato 200 g, dextrose 20 g, agar 20 g and distilled water 1 ? for 3 days and the agar disc(diameter 0.6 cm) was inoculated and cultured on sterilized wheat bran medium in a 1 L bottle at 26 to 28° C. for 7 days. A mycelial mass was ground using a homogenizer, inoculated uniformly on soil of a pot wherein a Nakdong rice plant having 2 or 3 leaves and an height of 5 cm grew, and kept in humidity polyvinyl chamber for 5 days to induce RSB. L.A. on a leaf sheath was measured to calculate an C.V.

SMILES	RCV (Fungicidal Activities, C.V.) ([1]; concentration 2 ppm)	RCV (Fungicidal Activities, C.V.) ([1]; concentration 10 ppm)	RCV (Fungicidal Activities, C.V.) ([1]; concentration 50 ppm)	CGM (Fungicidal Activities, C.V.) [2]	TLB (Fungicidal Activities, C.V.) ([3]; concentration 50 ppm)	WLR (Fungicidal Activities, C.V.) ([4]; concentration 2 ppm)	WLR (Fungicidal Activities, C.V.) ([4]; concentration 10 ppm)	WLR (Fungicidal Activities, C.V.) ([4]; concentration 50 ppm)	BPM (Fungicidal Activities, C.V.) ([5]; concentration 2 ppm)	BPM (Fungicidal Activities, C.V.) ([5]; concentration 10 ppm)	BPM (Fungicidal Activities, C.V.) ([5]; concentration 50 ppm)	RSB (Fungicidal Activities, C.V.) ([6]; concentration 2 ppm)	RSB (Fungicidal Activities, C.V.) ([6]; concentration 50 ppm)	further results
CON=C(C(=O)OC)c1ccccc1CON=C(C)c1cccc(OC(F)=Cc2cc(C)cc(C)c2)c1 [Compound 68]	100%	100%	100%	56%	20%	99%	100%	100%	100%	100%	100%	30%	100%	RSB (Fungicidal Activities, C.V.) ([6]; concentration 10 ppm): 70%
CNC(=O)C(=NOC)c1ccccc1CON=C(C)c1cccc(OC(F)=Cc2cccc(OC)c2)c1 [Compound 80]	100%		100%	77%	72%	96%		100%	100%		100%	45%	100%	TLB (Fungicidal Activities, C.V.) ([3]; concentration 2 ppm): 12%
CCc1ccc(C(=C(F)Oc2cccc(C(C)=NOCc3ccccc3C(=NOC)C(=O)NC)c2)C(F)(F)F)cc1 [Compound 195]														Fungicidal Activities RCV (C.V.) ([1]; 2 ppm): 100%; Fungicidal Activities RCV (C.V.) ([1]; 50 ppm): 96%; Fungicidal Activities CGM (C.V.) [2]: 82%; Fungicidal Activities TLB (C.V.) ([3]; 2 ppm): 25%; Fungicidal Activities TLB (C.V.) ([3]; 50 ppm): 50%; Fungicidal Activities WLR (C.V.) ([4]; 2 ppm): 98%; Fungicidal Activities WLR (C.V.) ([4]; 50 ppm): 100%; Fungicidal Activities BPM (C.V.) ([5]; 2 ppm): 99%; Fungicidal Activities BPM (C.V.) ([5]; 50 ppm): 100%; Fungicidal Activities RSB (C.V.) ([6]; 2 ppm): 25%; Fungicidal Activities RSB (C.V.) ([6]; 50 ppm): 80%
CNC(=O)C(=NOC)c1ccccc1CON=Cc1cccc(OC(F)=C(c2ccc(F)cc2)C(F)(F)F)c1 [Compound 145]	83%		100%	0%	0%	83%		100%	33%		100%		64%	
CON=C(C(=O)OC)c1ccccc1CON=C(C)c1cccc(OC(F)=C(c2ccc(C)cc2)C(F)(F)F)c1 [Compound 175]														Fungicidal Activities RCV (C.V.) ([1]; 2 ppm): 76%; Fungicidal Activities RCV (C.V.) ([1]; 50 ppm): 96%; Fungicidal Activities CGM (C.V.) [2]: 12%; Fungicidal Activities TLB (C.V.) ([3]; 50 ppm): 0%; Fungicidal Activities WLR (C.V.) ([4]; 2 ppm): 86%; Fungicidal Activities WLR (C.V.) ([4]; 50 ppm): 100%; Fungicidal Activities BPM (C.V.) ([5]; 2 ppm): 83%; Fungicidal Activities BPM (C.V.) ([5]; 50 ppm): 100%; Fungicidal Activities RSB (C.V.) ([6]; 2 ppm): 10%; Fungicidal Activities RSB (C.V.) ([6]; 50 ppm): 65%
CCOc1ccc(C=C(F)Oc2cccc(C=NOCc3ccccc3C(=NOC)C(=O)NC)c2)cc1 [Compound 36]	88%		100%	0%	0%	0%		93%	0%		100%		0%	
CON=C(C(=O)OC)c1ccccc1CON=Cc1cccc(OC(F)=Cc2ccc(Cl)cc2)c1 [Compound 28]	66%		99%	9%	38%	97%		100%	86%		95%	0%	50%	TLB (Fungicidal Activities, C.V.) ([3]; concentration 2 ppm): 50%
CCc1ccc(C=C(F)Oc2cccc(C(C)=NOCc3ccccc3C(=COC)C(=O)NC)c2)cc1 [Compound 59]			100%	0%	0%			73%			91%		47%	
COC=C(C(=O)OC)c1ccccc1CON=C(C)c1cccc(OC(F)=C(c2cccc(OC)c2)C(F)(F)F)c1 [Compound 157]	33%	76%	93%	68%	6%	98%	100%	100%	97%	99%	100%		60%	
COC=C(C(=O)OC)c1ccccc1CON=C(C)c1cccc(OC(F)=Cc2ccc(F)cc2)c1 [Compound 51]		99%	100%	52%	97%		100%	100%		100%	100%		90%	RSB (Fungicidal Activities, C.V.) ([6]; concentration 10 ppm): 88%
COC=C(C(=O)OC)c1ccccc1CON=Cc1cccc(OC(F)=Cc2ccc(Cl)cc2)c1 [Compound 14]	58%	86%	100%	7%	12%	96%	99%	100%	99%	100%	100%		75%	
CCOc1ccc(C=C(F)Oc2cccc(C(C)=NOCc3ccccc3C(=NOC)C(=O)NC)c2)cc1 [Compound 81]	100%		100%	83%	64%	99%		100%	100%		100%	30%	100%	TLB (Fungicidal Activities, C.V.) ([3]; concentration 2 ppm): 12%
CNC(=O)C(=NOC)c1ccccc1CON=C(C)c1cccc(OC(F)=C(c2cccc(Cl)c2)C(F)(F)F)c1 [Compound 201]														Fungicidal Activities RCV (C.V.) ([1]; 2 ppm): 98%; Fungicidal Activities RCV (C.V.) ([1]; 50 ppm): 97%; Fungicidal Activities CGM (C.V.) [2]: 85%; Fungicidal Activities TLB (C.V.) ([3]; 2 ppm): 25%; Fungicidal Activities TLB (C.V.) ([3]; 50 ppm): 50%; Fungicidal Activities WLR (C.V.) ([4]; 2 ppm): 97%; Fungicidal Activities WLR (C.V.) ([4]; 50 ppm): 100%; Fungicidal Activities BPM (C.V.) ([5]; 2 ppm): 100%; Fungicidal Activities BPM (C.V.) ([5]; 50 ppm): 100%; Fungicidal Activities RSB (C.V.) ([6]; 2 ppm): 20%; Fungicidal Activities RSB (C.V.) ([6]; 50 ppm): 85%
